Data on two compounds can be found in patent publication US5935591A, “Method for treatment of equine protozoal myeloencephalitis with thiazolides” (Romark Laboratories, L.C., priority 1998, dated 1999).

Converted amounts (≈) assume the structure as drawn. Like-named read-outs stand apart in the source and are kept apart here.

In one data set the test system is Sarcocystis spp. As to the kind of experiment: in vitro test system for activity against Sarcocystis spp. It counts as cell-based. To be noted: for activity in inhibiting the growth of the protozoa: in words.
Data set [1] has as its system equine protozoal myeloencephalitis (Sarcocystis infection). As to the kind of experiment: treatment of horses with nitazoxanide: symptoms of EPM. In kind it is in vivo, horse. As for the experimental part: (§1) All dosages were administered in solid (tablet) form.
(§2) This horse was positive for Sarcocystis infection in CSF and serum. […] The horse injured both hocks on day 12 by kicking the stall, resulting in edema of both rear limbs. […] On day 17 he was back to eating normally. Symptoms of EPM were gone by day 10 and have not returned.
(§3) This horse was positive for Sarcocystis infection in serological testing for antibody, showing no symptoms of the disease.
(§4) This horse was positive for Sarcocystis in serological testing for antibody, showing no symptoms of the disease.

Data set [2] in a line: safety and tolerance of nitazoxanide in horses. To be noted: for tolerance of the drug: oral. It counts as in vivo, horse. As for the experimental part: as §1, §2, §3, §4
The conditions of data set [3]: cited from earlier work.
In the next data set the test system is Moniezia expansa. To be noted: single oral dose; sheep; cited from earlier work.
Data set [4] deals with Avitellina centripunctata. To be noted: single oral dose; sheep; cited from earlier work.
Another data set has as its system Stilesia globipunctata. Particulars: single oral dose; sheep; cited from earlier work.
A further data set has as its system Thysanezia ovilla. Particulars: single oral dose; sheep; cited from earlier work.
A further data set concerns Dipylidium caninum. To be noted: single oral dose; dogs; cited from earlier work.
The test system of the next data set is Taenia pisiformis. To be noted: single oral dose; dogs; cited from earlier work.
A further data set concerns Taenia taeniaeformis. Particulars: single oral dose; cats; cited from earlier work.
The next data set deals with Uncinaria stenocephala. To be noted: repeated doses; dogs; cited from earlier work.
The next data set concerns Trichuris vulpis. Particulars: repeated doses; dogs; cited from earlier work.
The next data set concerns Hymenolepis nana. To be noted: mice; cited from earlier work.
For a further data set, the system named is Syphacia obvelata. To be noted: mice; cited from earlier work.
Data set [5] concerns Gram positive bacteria such as Staphylococcus aureus. To be noted: cited from earlier work.
Data set [6] concerns facultative and obligate anaerobic Gram positive and Gram negative bacteria. To be noted: cited from earlier work.
Data set [7] has as its system protozoan and helminthic pathogens. Particulars: cited from earlier work.

In the case of `CC(=O)Oc1ccccc1C(=O)Nc1ncc([N+](=O)[O-])s1` [nitazoxanide, 2-(acetolyloxy)-N-(5-nitro 2-thiazoly) benzamide], in the data set with Sarcocystis spp., the “50% inhibitory concentration (growth of the protozoa)” value is given as “approximately 0.475 μg/ml”. In addition, in the data set with Sarcocystis spp., the “activity in inhibiting the growth of the protozoa” value is “highly active”. The “day by which symptoms of EPM were gone” value in [1] (Horse #1, Sarcocystis positive in CSF and serum, oral tablet, 50 mg/kg days 1-6, 100 mg/kg days 9-16, 150 mg/kg days 18-25) is at most 10 days. The reoccurrence of symptoms entry in data set [1] (Horse #1, monitoring continued for 23 days) was “no reoccurrence of symptoms”. The “symptoms at the end of the trial and during the 30-day period after the trial” value in data set [1] (five horses, oral tablets, 50-150 mg/kg) is listed as “absence of any symptoms”. Besides, in data set [2] (Horse #1, days 15 and 16 (100 mg/kg days 9-16), back to eating normally on day 17), the eating of feed entry was “slow to finish eating feed”. Also, the “tolerance of the drug” value is given as “tolerated the drug well at all dose levels” in [2] (Horse #2, 75 mg/kg days 1-6, 100 mg/kg days 9-16, 150 mg/kg days 18-25); “tolerated the drug well at all dose levels” in [2] (Horse #3, 75 mg/kg days 1-6, 100 mg/kg days 9-16, 150 mg/kg days 18-27); “tolerated the drug well at all dose levels” in data set [2] (Horse #4, 75 mg/kg days 1-6, 100 mg/kg days 9-16, 150 mg/kg days 18-27); “tolerated the drug well at all dose levels” in data set [2] (Horse #5, 75 mg/kg days 1-6, 100 mg/kg days 9-16, 150 mg/kg days 18-27). In addition, in data set [2] (all five horses), the signs of toxicity result is on record as “no signs of toxicity”. The solubility result is “very poorly soluble” in data set [3] ("either" (so in the source)); “poorly soluble” in [3] (acetic acid); “fairly soluble” in data set [3] (acetone); “poorly soluble” in [3] (chloroform); “fairly soluble” in data set [3] (dioxane); “poorly soluble” in data set [3] (ethanol). The values for the solubility result in [3] (methyl benzene), in [3] (pyridine) and in data set [3] (water) were “very poorly soluble”, “easily soluble” and “very poorly soluble”, respectively. Besides, the cestocidal effect result (in the data set on Moniezia expansa; in data set [4]; with Stilesia globipunctata; in the data set on Thysanezia ovilla; in the data set on Dipylidium caninum; in the data set on Taenia pisiformis) was “cestocidal effect” each time. The cestocidal effect result in the data set on Taenia taeniaeformis was “cestocidal effect”. The “efficacy against gastrointestinal nematodes” value in the data set on Uncinaria stenocephala and in the data set with Trichuris vulpis was “also observed” throughout. Also, in the data set on Hymenolepis nana, the single dose activity entry is reported as “activity”. The “effect of repeated doses” value in the data set on Syphacia obvelata is “effect”. The antibacterial effect result in [5] and in data set [6] was “effective” throughout. For the same compound, the “activity against protozoan and helminthic pathogens” value in [7] was “activity against a number of protozoan and helminthic pathogens”.

Take `O=C(Nc1ncc([N+](=O)[O-])s1)c1ccccc1O` [tizoxanide]: in the data set with Sarcocystis spp., the “activity in inhibiting the growth of the protozoa” value is “highly active”. Besides, the IC50 in the data set on Sarcocystis spp. (read-out: 50% inhibitory concentration (growth of the protozoa)) was around 0.475 µg/mL (≈ 1.79 µM).
